# From US9181234B2, “Antibacterial compounds” (priority 2010, dated 2015)
# Tests used:
# physchem = settings: kinetic from dmso stock
# Outline: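 DMSO doubling dilutions were diluted twenty-fold into 100 mM citrate (pH 4), PBS (pH 7.4) or carbonate-bicarbonate (pH 9). After 24 h equilibration at room temperature, absorbance was read at 620 nm. The reported value is the highest concentration without measurable precipitate.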
# [1] = tested on: Staphylococcus aureus (Isolate ID ATCC 29213); assay: Antibacterial activity, MIC, S. aureus; type: cell-based; settings: Staphylococcus aureus, ATCC29213, Gram positive strain; broth microdilution or agar dilution
# Outline: (§1)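 MICs were determined by broth microdilution or agar dilution following CLSI guidelines (M7-A7), testing susceptibility in liquid or on solid media.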
# [2] = tested on: Enterococcus faecalis (Isolate ID ATCC 29212); assay: Antibacterial activity, MIC, E. faecalis; type: cell-based; settings: Enterococcus faecalis, ATCC29212; Gram positive strain; broth microdilution or agar dilution
# Outline: as §1
# [3] = tested on: Streptococcus pyogenes (Isolate ID ATCC 51339); assay: Antibacterial activity, MIC, S. pyogenes; type: cell-based; settings: Streptococcus pyogenes, ATCC51339, Gram positive strain; broth microdilution or agar dilution
# Outline: as §1
# [4] = tested on: Haemophilus influenzae (Isolate ID ATCC 49247); assay: Antibacterial activity, MIC, H. influenzae; type: cell-based; settings: Haemophilus influenzae, ATCC49247; Gram negative strain; broth microdilution or agar dilution
# Outline: as §1
# [5] = pH 7.4, aqueous buffer, Max Solubility
# [6] = pH 7.4, aqueous buffer, Solubility (pH 7.4)
# [7] = pH 7.4, aqueous buffer, Solubility Range
# [8] = pH 7.4, aqueous buffer, Solubility Range (maximum solubility)
# [9] = pH 9, aqueous buffer, Max Solubility
# [10] = pH 9, aqueous buffer, Solubility Range (maximum solubility)
SMILES,solubility at 24 h (physchem; [5]),solubility at 24 h (physchem; [6]),solubility at 24 h (physchem; [7]),solubility at 24 h (physchem; [8]),MIC [1],MIC [2],MIC [3],MIC [4],solubility at 24 h (physchem; [9]),solubility at 24 h (physchem; [10])
CCNC(=O)Nc1nc2cc(-c3cnc(N4CCC(C)(C(=O)O)CC4)nc3)cc(-c3cc(OCCOC)nc(C)n3)c2s1 [Compound 49],≥ 800 µg/mL,≥ 800 µg/mL,> 800 µg/mL,> 800 µg/mL,≤ 0.25 µg/mL,≤ 0.25 µg/mL,≤ 0.25 µg/mL,1 to 16 µg/mL,–,–
"CCNC(=O)Nc1nc2cc(-c3cnc(N4CCC(C)(C(=O)O)CC4)nc3)cc(-c3cn(C)nn3)c2s1 [Compound 50, 1-[5-[2-(ethylcarbamoylamino)-7-(1-methyltriazol-4-yl)-1,3-benzothiazol-5-yl]pyrimidin-2-yl]-4-methyl-piperidine-4-carboxylic acid]",≥ 800 µg/mL,≥ 800 µg/mL,> 800 µg/mL,> 800 µg/mL,> 16 µg/mL,0.25 to 1 µg/mL,0.25 to 1 µg/mL,1 to 16 µg/mL,–,–
CCNC(=O)Nc1nc2cc(-c3cnc(N4CCC(C)(C(=O)O)CC4)nc3)cc(-c3ncc(OC)cn3)c2s1 [Compound 51],≥ 800 µg/mL,≥ 800 µg/mL,> 800 µg/mL,> 800 µg/mL,≤ 0.25 µg/mL,≤ 0.25 µg/mL,≤ 0.25 µg/mL,0.25 to 1 µg/mL,–,–
CCNC(=O)Nc1nc2cc(-c3cnc(N4CCC(C)(C(=O)O)CC4)nc3)cc(-c3cccc(OC)n3)c2s1 [Compound 52],≥ 800 µg/mL,≥ 800 µg/mL,> 800 µg/mL,> 800 µg/mL,≤ 0.25 µg/mL,≤ 0.25 µg/mL,≤ 0.25 µg/mL,1 to 16 µg/mL,–,–
CCNC(=O)Nc1nc2cc(-c3cnc(N4CCC(C)(C(=O)O)CC4)nc3)cc(-c3ccc(F)c(C)n3)c2s1 [Compound 53],–,25 µg/mL,12.5 to 400 µg/mL,–,≤ 0.25 µg/mL,≤ 0.25 µg/mL,≤ 0.25 µg/mL,1 to 16 µg/mL,≥ 800 µg/mL,> 800 µg/mL
CCNC(=O)Nc1nc2cc(-c3cnc(N4CCC(C)(C(=O)O)CC4)nc3)cc(-c3ncc(F)cc3F)c2s1 [Compound 54],≥ 800 µg/mL,≥ 800 µg/mL,> 800 µg/mL,> 800 µg/mL,≤ 0.25 µg/mL,≤ 0.25 µg/mL,≤ 0.25 µg/mL,1 to 16 µg/mL,–,–
CCNC(=O)Nc1nc2cc(-c3cnc(N4CCC(C)(C(=O)O)CC4)nc3)cc(-c3nccc(OC)c3F)c2s1 [Compound 55],–,400 µg/mL,400 to 800 µg/mL,–,≤ 0.25 µg/mL,≤ 0.25 µg/mL,≤ 0.25 µg/mL,0.25 to 1 µg/mL,≥ 800 µg/mL,> 800 µg/mL
CCNC(=O)Nc1nc2cc(-c3cnc(N4CCC(C)(C(=O)O)CC4)nc3)cc(-c3cnc(OC)cn3)c2s1 [Compound 56],≥ 800 µg/mL,≥ 800 µg/mL,> 800 µg/mL,> 800 µg/mL,≤ 0.25 µg/mL,≤ 0.25 µg/mL,≤ 0.25 µg/mL,0.25 to 1 µg/mL,–,–
CCNC(=O)Nc1nc2cc(-c3cnc(N4CCC(C)(C(=O)O)CC4)nc3)cc(-c3cc(=O)n(C(C)C)cn3)c2s1 [Compound 57],–,200 µg/mL,12.5 to 400 µg/mL,–,1 to 16 µg/mL,0.25 to 1 µg/mL,0.25 to 1 µg/mL,1 to 16 µg/mL,400 µg/mL,400 to 800 µg/mL
CCNC(=O)Nc1nc2cc(-c3cnc(N4CCC(C)(C(=O)O)CC4)nc3)cc(-c3ccc(C#N)c(C)n3)c2s1 [Compound 58],–,25 µg/mL,12.5 to 400 µg/mL,–,≤ 0.25 µg/mL,≤ 0.25 µg/mL,≤ 0.25 µg/mL,1 to 16 µg/mL,50 µg/mL,12.5 to 400 µg/mL
CCNC(=O)Nc1nc2cc(-c3cnc(N4CCC(C)(C(=O)O)CC4)nc3)cc(-c3ncc(C)cn3)c2s1 [Compound 59],≥ 800 µg/mL,≥ 800 µg/mL,> 800 µg/mL,> 800 µg/mL,≤ 0.25 µg/mL,≤ 0.25 µg/mL,≤ 0.25 µg/mL,≤ 0.25 µg/mL,–,–
CCNC(=O)Nc1nc2cc(-c3cnc(N4CCC(C)(C(=O)O)CC4)nc3)cc(-c3ncc(CC)cn3)c2s1 [Compound 60],–,12.5 µg/mL,12.5 to 400 µg/mL,–,≤ 0.25 µg/mL,≤ 0.25 µg/mL,≤ 0.25 µg/mL,0.25 to 1 µg/mL,400 µg/mL,400 to 800 µg/mL
CCNC(=O)Nc1nc2cc(-c3cnc(N4CCC(C)(C(=O)O)CC4)nc3)cc(-c3ncccc3OC)c2s1 [Compound 61],≥ 800 µg/mL,≥ 800 µg/mL,> 800 µg/mL,> 800 µg/mL,≤ 0.25 µg/mL,≤ 0.25 µg/mL,≤ 0.25 µg/mL,1 to 16 µg/mL,–,–
CCNC(=O)Nc1nc2cc(-c3cnc(N4CCC(C)(C(=O)O)CC4)nc3)cc(-c3nc(OC)ccc3N)c2s1 [Compound 62],≥ 800 µg/mL,≥ 800 µg/mL,> 800 µg/mL,> 800 µg/mL,0.25 to 1 µg/mL,≤ 0.25 µg/mL,0.25 to 1 µg/mL,1 to 16 µg/mL,–,–
CCNC(=O)Nc1nc2cc(-c3cnc(N4CCC(C)(C(=O)O)CC4)nc3)cc(-c3ncc(C#N)cc3F)c2s1 [Compound 63],–,400 µg/mL,400 to 800 µg/mL,–,≤ 0.25 µg/mL,≤ 0.25 µg/mL,≤ 0.25 µg/mL,1 to 16 µg/mL,≥ 800 µg/mL,> 800 µg/mL
CCNC(=O)Nc1nc2cc(-c3cnc(N4CCC(C)(C(=O)O)CC4)nc3)cc(-c3nc(C)ccc3OC)c2s1 [Compound 64],≥ 800 µg/mL,≥ 800 µg/mL,> 800 µg/mL,> 800 µg/mL,≤ 0.25 µg/mL,≤ 0.25 µg/mL,≤ 0.25 µg/mL,1 to 16 µg/mL,–,–
CCNC(=O)Nc1nc2cc(-c3cnc(N4CCC(C)(C(=O)O)CC4)nc3)cc(-c3ncc(C)cc3C#N)c2s1 [Compound 65],12.5 µg/mL,12.5 µg/mL,12.5 to 400 µg/mL,12.5 to 400 µg/mL,≤ 0.25 µg/mL,≤ 0.25 µg/mL,≤ 0.25 µg/mL,1 to 16 µg/mL,–,–
CCNC(=O)Nc1nc2cc(-c3cnc(N4CCC(C)(C(=O)O)CC4)nc3)cc(-c3cnc(C)cn3)c2s1 [Compound 66],≥ 800 µg/mL,≥ 800 µg/mL,> 800 µg/mL,> 800 µg/mL,≤ 0.25 µg/mL,≤ 0.25 µg/mL,≤ 0.25 µg/mL,0.25 to 1 µg/mL,–,–
CCNC(=O)Nc1nc2cc(-c3cnc(N4CCC(C)(C(=O)O)CC4)nc3)cc(-c3ccncn3)c2s1 [Compound 67],≥ 800 µg/mL,≥ 800 µg/mL,> 800 µg/mL,> 800 µg/mL,≤ 0.25 µg/mL,≤ 0.25 µg/mL,≤ 0.25 µg/mL,1 to 16 µg/mL,–,–
CCNC(=O)Nc1nc2cc(-c3cnc(N4CCC(C)(C(=O)O)CC4)nc3)cc(-c3cc(OCC)ccn3)c2s1 [Compound 68],≥ 800 µg/mL,≥ 800 µg/mL,> 800 µg/mL,> 800 µg/mL,≤ 0.25 µg/mL,≤ 0.25 µg/mL,≤ 0.25 µg/mL,0.25 to 1 µg/mL,–,–
